From patent publication US9975852B2, “Quinoline sulfonyl derivatives and uses thereof” (Health Sciences North Research Institute, priority 2013, dated 2018)

Assays:
MCF7 cells = assay: Clonogenic assay using MCF7 cells; format: cell-based, human; conditions: for Average colony number: series with non-treated control 34
Procedure: The clonogenic assay was carried out as described in Santi and Lee (2011).^11
Antiproliferative activity of VR-23 was evaluated on a variety of different cell lines, alone or in combination with Bortezomib, by way of SRBSRB or clonogenic assays.

HeLa S3 cells = assay: Confocal microscopy of spindle poles, centrosomes and cytoskeleton, HeLa S3 cells; format: cell-based
Excerpt: All immunocytochemistry experiments were visualized by confocal microscopy using a Zeiss 510 Meta laser scanning microscope (Carl Zeiss) equipped with a 63× objective lens, unless otherwise specified herein. Three lasers were utilized for excitation with the following band pass filter settings used for detection: Argon 488 nm (band pass 505-530), HeNe 543 nm (long pass 560) and 633 nm (long pass 650). All images were captured and analyzed using LSM 510 software included with the microscope (LSM Image Examiner™, Carl Zeiss).
The synchronization at the G1/S border (more accurately at the beginning of S phase) was achieved by double thymidine block (DT). Briefly, exponentially growing cells are treated with 2.0 mM thymidine for 18 hours, followed by incubation for 11 hours in drug-free complete medium, by which time most cells are at mid-late G1 phase. The cells are then incubated for another 14 hours in 2.0 mM thymidine to arrest them at the G1/S border. To arrest cells at the G2/M phase, cells were maintained for 18 hours in complete medium containing nocodazole (50 ng/ml). Both these synchronization are reversible.
VR-23 caused the formation of multiple spindle poles during late G1 phase in HeLa S3 cells (FIG. 9). HeLa S3 cells were synchronized at G2/M by nocodazole (50 ng/ml, 18 hours), followed by incubation for 6 hours in drug-free medium (at which time they were at G1) (see, e.g., FIG. 8). Cells were then incubated in the absence (control) or presence of 5 μM VR-23 for additional 6 hours (see flow cytometry profile in FIG. 8). […] Note the presence of uneven cell sizes (arrows) which may have been generated as a result of nondisjuctional chromosome segregation during mitosis.
Exponentially growing HeLa S3 cells were treated with 5 μM VR-23 for 6 hours, fixed, stained with an antibody specific for α-tubulin and then examined by confocal fluorescent microscopy for changes to their cytoskeletal structure. Sham denotes that the sample was treated exactly the same as VR-23 sample, except that they were not exposed to VR-23. […] HeLa S3 cells were treated with 2 mM thymidine for 18 hours, followed by incubation for 11 hours in drug-free complete medium, by which time most cells were at mid-late G1 phase. The cells were then incubated for another 14 hours in 2.0 mM thymidine in the absence (control) or presence of 10 μM VR-23. Under these conditions, cells are trapped in the beginning of S phase by a second thymidine block. No centrosome was amplified in the control, while over 87% of VR-23 treated cells analyzed contained multiple centrosomes.
HeLa S3 cells synchronized at the G1/S border by DT treatment were released into cell cycle for 1-6 hours in the absence (control) (FIG. 13A) or presence (FIG. 13B) of VR-23, followed by confocal microscopy. Centrosome amplification was manifested by 3 hour post-DT, although supernumerary started to form by 2 hour post-DT (solid arrows). (Due to experimental variations, centrosome amplification is not visible by 2 hours in all instances). […] More than 70% of cells exposed to VR-23 for 12 hours during S-G2/M contained multiple centrosomes, compared to less than 4% in the control. At least 200 cells were counted for each sample, and each experiment was repeated at least three times.
HeLa S3 cells synchronized at G1/S by DT were released into normal medium for 6 hours (cells reached ˜G2/M), at which time they were exposed to VR-23 for additional 6 hours. Solid arrows denote spindle assembly complexes. […] Triple MTOC/Three-way-pull phenotype comprises usually more than 50-60% of the total population. The “No attachment” phenotype is usually observed when DNA is not completely condensed.

[1] = system: MDA-MB231 human metastatic breast cancer cells; assay: Xenograft antitumor activity, ATH490 mice engrafted with MDA-MB231; format: in vivo
Procedure: Five-week-old female CD-1 and ATH490 (strain code 490) athymic nude mice were purchased from Charles River (Quebec, Canada). The MDA-MB231 human metastatic breast cancer cells were obtained from the American Tissue Culture Collection (ATCC, Manassas, Va., USA). Cells were maintained under humidified condition at 37° C. and 5% CO2 in DMEM high glucose medium (ATCC) supplemented with 10% fetal bovine serum and antibiotics. All animal experiments, including animal handling, care, treatment and endpoint determination, were reviewed and approved by the Laurentian University Animal Care Committee (ACC) and carried out at Laurentian University Animal Care facility (Sudbury, Ontario, Canada)
To determine anti-tumor activity of VR-23 in an animal model, a xenograft model of human breast cancer cells in athymic nude mice was established. Exponentially growing MDA-MB231 cells were harvested and counted for inoculation into mice. Each mouse was subcutaneously injected at the flank with 10×10^6 cells in 0.2 ml ice cold 1×PBS. When tumor size reached 4-5 mm in diameter (n=4-5 per group), mice were randomly assigned into five (or more) groups.

[2] = Organ weight and histology (liver, spleen, kidney, lung) of ATH490 mice
Procedure: All values are presented as mean±S.E.M. Analyses were performed using GraphPad Prism software (GraphPad Software). Comparison between the groups was made by p value determination using one-way ANOVA. A p value of <0.05 was considered to be statistically significant. […] Each organ weight (%) is normalized with total body weight (BW).
The H&E stained slides were taken with a 20× objective using a Zeiss EPI-fluorescent microscope (bright field). […] At least 10 fields for each slide (one slide per mouse, and 3 mice per group) were examined.
Images were taken with a 10× objective using a Zeiss EPI-fluorescent microscope. […] Drug administration was carried out as described in Table IX and in the Materials and Methods section herein with respect to Animal Studies.
The images of the H&E stained renal tissues were taken with a Zeiss EPI-fluorescent (bright field) microscope using a 10× objective.

[3] = VR-23 for 6 hours from 6 hours post-DT
[4] = VR-23 30 mg/kg, paclitaxel 20 mg/kg

**Q.** With `O=[N+]([O-])c1ccc(S(=O)(=O)N2CCN(c3ccnc4cc(Cl)ccc34)CC2)c([N+](=O)[O-])c1` [Compound 1, 7-Chloro-4-(4-(2,4-dinitrophenylsulfonyl)piperazin-1-yl)quinoline] as the compound, how does the “Survival (% of the control)” value (MCF7 cells; 1.5 μM of VR-23 alone) read?
**A.** Its value is 50.3%.

**Q.** What about the “Survival (% of the control)” value (MCF7 cells; 3.1 μM of VR-23 alone) of the same compound?
**A.** Its value is 46.8%.

**Q.** What about the IC50 (MCF7 cells; Homo sapiens, MCF7, read-out: IC50 MCF7) of the same compound?
**A.** The IC50 was 1200 ± 500 nM.

**Q.** What about the Average colony number (MCF7 cells; VR-23 at 0.37 μM) of the same compound?
**A.** Its Average colony number is 25.

**Q.** And the Average colony number (MCF7 cells; VR-23 at 0.75 μM)?
**A.** The Average colony number was 27.

**Q.** What about the “Cells with multiple spindle phenotype” value (HeLa S3 cells; 5 μM VR-23, 6 hours, late G1) of the same compound?
**A.** The value was 44.4%.

**Q.** And the Cytoskeletal formation (HeLa S3 cells; 5 μM VR-23 for 6 hours, α-tubulin staining)?
**A.** Its Cytoskeletal formation is “caused abnormal cytoskeletal formation”.

**Q.** And the “Cells containing multiple centrosomes” value (HeLa S3 cells; 10 μM VR-23 during second thymidine block, 14 hours)?
**A.** The value was “over 87%”.

**Q.** What about the “Number of cells with multiple centrosomes” value (“Number of cells” for short) (HeLa S3 cells; 3 hours post DT) of the same compound?
**A.** The value was 41 ± 11.8.

**Q.** What about the “Number of cells” value (HeLa S3 cells; 6 hours post DT) of the same compound?
**A.** The value was 55.2 ± 16.7.

**Q.** And the “Number of cells” value (HeLa S3 cells; 12 hours post DT)?
**A.** The value was 73.2 ± 1.0.

**Q.** What about the “Mitotic cells among 352 cells counted” value (HeLa S3 cells; [3]) of the same compound?
**A.** The value was 34.1%.

**Q.** And the “Mitotic cells with abnormal chromosome segregation” value (HeLa S3 cells; [3])?
**A.** Its value is 78.3%.

**Q.** And the “Triple MTOC/Three-way-pull phenotype, share of total population” value (HeLa S3 cells; [3])?
**A.** The value was 50-60%.

**Q.** And the “Cells containing multiple centrosomes” value (HeLa S3 cells; exposed to VR-23 for 12 hours during S-G2/M)?
**A.** The value was “More than 70%”.

**Q.** What about the “Decrease of tumor size compared to sham-treated control” value ([1]; VR-23 30 mg/kg twice per week i.p., three weeks) of the same compound?
**A.** Its value is 4.6 fold.

**Q.** What about the “Tumor size D0” value ([1]; day 0, dosing as in Table IX B) of the same compound?
**A.** Its value is 46.51 ± 2.82.

**Q.** What about the “Tumor size D7” value ([1]; day 7 post-treatment, dosing as in Table IX B) of the same compound?
**A.** Its value is 52.74 ± 5.64.

**Q.** What about the “Tumor size D15” value ([1]; day 15 post-treatment, dosing as in Table IX B) of the same compound?
**A.** Its value is 48.29 ± 17.30.

**Q.** What about the “Tumor size D18” value ([1]; day 18 post-treatment, dosing as in Table IX B) of the same compound?
**A.** Its value is 42.41 ± 17.95.

**Q.** What about the “Tumor size D22” value ([1]; day 22 post-treatment, dosing as in Table IX B) of the same compound?
**A.** The value was 65.88 ± 25.92.

**Q.** What about the “VEGF immunostaining of tumor” value ([1]; four weeks treatment) of the same compound?
**A.** The value was “did not show any notable amount of VEGF”.

**Q.** What about the “Angiogenesis and spread of tumor cells” value ([1]; four weeks treatment, H & E) of the same compound?
**A.** The value was “inhibited angiogenesis and the spread of tumor cells to surrounding tissue/organs”.

**Q.** And the “Tumor cell proliferation (Ki-67, mitotic index)” value ([1]; tumor samples 15 and 29 days post-treatment)?
**A.** The value was “inhibited tumor cell proliferation”.

**Q.** And the “Microscopic Changes (liver)” value ([2]; ATH490 mice, VR-23, 30 mg/week, Paclitaxel, 20 mg/week)?
**A.** The value was “Largely (>95% of cases) normal”.

**Q.** What about the “Effects on vital organs by their weights” value ([2]; VR-23 30 mg/kg, 29 days post-treatment) of the same compound?
**A.** Its value is “did not cause any notable ill effects on vital organs”.

**Q.** And the “Mitotic index in the liver” value [2, 4]?
**A.** Its value is “did not cause an increase in mitotic index”.

**Q.** What about the “Spleen histology (H&E)” value [2, 4] of the same compound?
**A.** The value was “did not cause any notable toxicity to the spleen”.

**Q.** What about the “Kidney histology (H&E), nephrotoxicity” value ([2]; VR-23 30 mg/kg, paclitaxel 20 mg/kg, four weeks) of the same compound?
**A.** The value was “did not cause any notable toxicity to the kidney”.
